Assay results reported in patent US20230365546A1, “5-SUBSTITUTED INDOLE 3-AMIDE DERIVATIVES, PREPARATION METHOD AND USE THEREOF” (ORIGIANT PHARMACEUTICAL CO., LTD, priority 2020, published 2023).

Key:
RIPK1 = RIPK1 (Homo sapiens (Human), UniProt Q13546); test: In vitro kinase assay (Eurofins Kinase Profiler), IC50; format: biochemical; settings: 0.001-10 μM, read-out: RIPK 1 (IC50)
HT-29 cells = test: Protection against programmed necrosis of HT-29 cells (TNF α/Smac mimetic/Z-VAD-FMK, CCK8); format: cell-based; settings: Homo sapiens, TNF α/Smac mimetic/Z-VAD-FMK induced 24 h, CCK8, read-out: HT-29 (EC50)
Description: In vitro protection against programmed necrosis of HT-29 cells was conducted by ourselves.
DMEM medium was purchased from Gibco Inc., penicillin and streptomycin were purchased from HyClone Inc., TNF α was purchased from PeproTech Inc., Smac mimetic and Z-VAD-FMK were purchased from Selleck Inc., CCK8 was purchased from Medchem Express Inc.
HT-29 cells (colon cancer cells) were cultured in DMEM+10% FBS+Penicillin/Streptomycin medium. During the experiments, HT-29 cells in logarithmic growth phase were harvested, seeded in a 96-well plate at specific numbers per well (typically 8×10^3 cells/well of adherent cells) and cultured overnight in a 37° C., 5% CO2 cell culture incubator. The next day, the compounds to be tested were diluted with culture medium to the corresponding concentrations and added into the corresponding wells of a 96-well plate, with 3 replicate wells for each sample, and a Vehicle control group and a blank Control group containing only culture medium were set at the same time. […] The absorbance was measured at 495 nm wavelength using a microplate reader, and the protection rate of the drug on the cells necrosis was calculated according to the following formula:
Protection rate of cell necrosis=[(X−C0)/(C−C0)]×100%
Wherein, C, C0, and X represent the mean absorbance values of the Vehicle control group, Blank control group and Drug treatment group, respectively.

Chain of RIPK1 (Q13546 whole entry): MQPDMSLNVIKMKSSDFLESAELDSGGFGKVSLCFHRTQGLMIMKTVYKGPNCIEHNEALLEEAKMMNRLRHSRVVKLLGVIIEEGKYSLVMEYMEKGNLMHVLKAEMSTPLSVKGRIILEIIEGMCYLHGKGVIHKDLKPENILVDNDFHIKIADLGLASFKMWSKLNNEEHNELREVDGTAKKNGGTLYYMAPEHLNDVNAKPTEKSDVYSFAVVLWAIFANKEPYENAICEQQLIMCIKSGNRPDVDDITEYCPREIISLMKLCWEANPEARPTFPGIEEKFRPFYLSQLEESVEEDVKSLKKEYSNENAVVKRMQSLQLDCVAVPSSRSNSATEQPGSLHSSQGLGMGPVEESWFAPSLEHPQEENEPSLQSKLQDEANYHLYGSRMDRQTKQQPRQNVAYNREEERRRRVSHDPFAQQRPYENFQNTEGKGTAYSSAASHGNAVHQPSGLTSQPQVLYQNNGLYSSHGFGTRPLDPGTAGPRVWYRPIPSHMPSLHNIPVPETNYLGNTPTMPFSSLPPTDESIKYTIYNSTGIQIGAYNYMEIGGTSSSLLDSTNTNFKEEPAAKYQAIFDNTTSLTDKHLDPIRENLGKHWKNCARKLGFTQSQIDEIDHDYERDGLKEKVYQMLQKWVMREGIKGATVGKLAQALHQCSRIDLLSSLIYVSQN

SMILES: C[C@H](NC(=O)c1c[nH]c2ccc(-c3ccc4nc(NC(=O)C5CCCC5)sc4c3)cc12)c1cccc(F)c1 [Compound 48]
- IC50 (RIPK1): 0.01 to 0.1 µM
- EC50 (HT-29 cells): 0.001 to 0.01 µM

SMILES: C[C@H](NC(=O)c1c[nH]c2ccc(-c3ccc4nc(NC(=O)C5CCCCC5)sc4c3)cc12)c1cccc(F)c1 [Compound 49]
- IC50 (RIPK1): 0.01 to 0.1 µM
- EC50 (HT-29 cells): 0.01 to 0.1 µM

SMILES: C[C@H](NC(=O)c1c[nH]c2ccc(-c3ccc4nc(NC(=O)C(C)(C)C)sc4c3)cc12)c1cccc(F)c1 [Compound 50]
- IC50 (RIPK1): 0.01 to 0.1 µM
- EC50 (HT-29 cells): 0.01 to 0.1 µM

SMILES: C[C@H](NC(=O)c1c[nH]c2ccc(-c3ccc4nc(NC(=O)C5CCOCC5)sc4c3)cc12)c1cccc(F)c1 [Compound 51]
- IC50 (RIPK1): 0.01 to 0.1 µM
- EC50 (HT-29 cells): 0.01 to 0.1 µM

SMILES: C[C@H](NC(=O)c1c[nH]c2ccc(-c3ccc4nc(NC(=O)C(F)(F)F)sc4c3)cc12)c1cccc(F)c1 [Compound 52]
- IC50 (RIPK1): 0.1 to 1 µM
- EC50 (HT-29 cells): 0.01 to 0.1 µM

SMILES: C[C@H](NC(=O)c1c[nH]c2ccc(-c3ccc4nc(NC(=O)C5CCN(C)CC5)sc4c3)cc12)c1cccc(F)c1 [Compound 53]
- IC50 (RIPK1): 0.1 to 1 µM
- EC50 (HT-29 cells): 0.1 to 1 µM

SMILES: Cn1cc(C(=O)NCc2cc(F)ccc2F)c2cc(-c3ccc4nc(NC(=O)C5CC5)sc4c3)ccc21 [Compound 54]
- IC50 (RIPK1): 0.01 to 0.1 µM
- EC50 (HT-29 cells): < 0.001 µM

SMILES: CC(C)C(=O)Nc1nc2ccc(-c3ccc4[nH]cc(C(=O)N[C@@H](C)c5cccc(F)c5)c4c3)cc2s1 [Compound 55]
- IC50 (RIPK1): 0.01 to 0.1 µM
- EC50 (HT-29 cells): 0.001 to 0.01 µM

SMILES: CC(C)n1cc(C(=O)NCc2cc(F)ccc2F)c2cc(-c3ccc4nc(NC(=O)C5CC5)sc4c3)ccc21 [Compound 56]
- IC50 (RIPK1): 0.01 to 0.1 µM
- EC50 (HT-29 cells): 0.001 to 0.01 µM

SMILES: CCCn1cc(C(=O)NCc2cc(F)ccc2F)c2cc(-c3ccc4nc(NC(=O)C5CC5)sc4c3)ccc21 [Compound 57]
- IC50 (RIPK1): 0.1 to 1 µM
- EC50 (HT-29 cells): 0.01 to 0.1 µM

SMILES: CCCCn1cc(C(=O)NCc2cc(F)ccc2F)c2cc(-c3ccc4nc(NC(=O)C5CC5)sc4c3)ccc21 [Compound 58]
- IC50 (RIPK1): 0.1 to 1 µM
- EC50 (HT-29 cells): 0.1 to 1 µM

SMILES: C[C@H](NC(=O)c1n[nH]c2ccc(-c3ccc4nc(NC(=O)C5CC5)sc4c3)cc12)c1cccc(F)c1 [Compound 59]
- IC50 (RIPK1): 0.01 to 0.1 µM
- EC50 (HT-29 cells): 0.001 to 0.01 µM

SMILES: COc1cc(F)ccc1NC(=O)c1c[nH]c2ncc(-c3ccc4nc(NC(=O)C5CC5)sc4c3)cc12 [Compound 60]
- IC50 (RIPK1): ≥ 1 µM
- EC50 (HT-29 cells): ≥ 1 µM

SMILES: COc1cc(F)ccc1NC(=O)c1n[nH]c2ccc(-c3ccc4nc(NC(=O)C5CC5)sc4c3)cc12 [Compound 61]
- IC50 (RIPK1): ≥ 1 µM
- EC50 (HT-29 cells): ≥ 1 µM

SMILES: C[C@H](NC(=O)c1c[nH]c2ncc(-c3ccc4nc(NC(=O)C5CC5)sc4c3)cc12)c1cccc(F)c1 [Compound 62]
- IC50 (RIPK1): 0.1 to 1 µM
- EC50 (HT-29 cells): 0.001 to 0.01 µM

SMILES: COc1ccc(NC(=O)c2c[nH]c3ncc(-c4ccc5nc(NC(=O)C6CC6)sc5c4)cc23)cc1OC [Compound 63]
- IC50 (RIPK1): 0.01 to 0.1 µM
- EC50 (HT-29 cells): 0.01 to 0.1 µM

SMILES: COc1ccc(CNC(=O)c2c[nH]c3ncc(-c4ccc5nc(NC(=O)C6CC6)sc5c4)cc23)cc1OC [Compound 64]
- IC50 (RIPK1): 0.1 to 1 µM
- EC50 (HT-29 cells): 0.01 to 0.1 µM

SMILES: COc1ccc(CNC(=O)c2cn(C)c3ccc(-c4ccc5nc(NC(=O)C6CC6)sc5c4)cc23)cc1OC [Compound 65]
- IC50 (RIPK1): 0.1 to 1 µM
- EC50 (HT-29 cells): 0.01 to 0.1 µM

SMILES: Cn1cc(C(=O)N2CCN(Cc3ccc4c(c3)OCO4)CC2)c2cc(-c3ccc4nc(NC(=O)C5CC5)sc4c3)ccc21 [Compound 66]
- IC50 (RIPK1): ≥ 1 µM
- EC50 (HT-29 cells): ≥ 1 µM

SMILES: COc1cc(CN2CCN(C(=O)c3cn(C)c4ccc(-c5ccc6nc(NC(=O)C7CC7)sc6c5)cc34)CC2)cc(OC)c1OC [Compound 67]
- IC50 (RIPK1): ≥ 1 µM
- EC50 (HT-29 cells): ≥ 1 µM

SMILES: C[C@H](NC(=O)c1cn(C)c2ccc(-c3ccc(CN4CCN(C)CC4)cc3)cc12)c1cccc(F)c1 [Compound 68]
- IC50 (RIPK1): ≥ 1 µM
- EC50 (HT-29 cells): ≥ 1 µM

SMILES: Cc1noc(C)c1-c1cnc2[nH]cc(C(=O)N[C@@H](C)c3cccc(F)c3)c2c1 [Compound 69]
- IC50 (RIPK1): ≥ 1 µM
- EC50 (HT-29 cells): ≥ 1 µM

SMILES: C[C@H](NC(=O)c1cn(C)c2ccc(-c3ccc(C(=O)N4CCOCC4)cc3)cc12)c1cccc(F)c1 [Compound 70]
- IC50 (RIPK1): ≥ 1 µM
- EC50 (HT-29 cells): 0.1 to 1 µM

SMILES: C[C@H](NC(=O)c1cn(C)c2ccc(-c3ccnn3C3CCCCO3)cc12)c1cccc(F)c1 (stereo partly shown) [Compound 71]
- IC50 (RIPK1): ≥ 1 µM
- EC50 (HT-29 cells): ≥ 1 µM

SMILES: C[C@H](NC(=O)c1cn(C)c2ccc(-c3ccc(N4CCOCC4)cc3)cc12)c1cccc(F)c1 [Compound 72]
- IC50 (RIPK1): ≥ 1 µM
- EC50 (HT-29 cells): ≥ 1 µM

SMILES: C[C@H](NC(=O)c1cn(C)c2ccc(-c3ccc(N4CCOCC4)nc3)cc12)c1cccc(F)c1 [Compound 73]
- IC50 (RIPK1): ≥ 1 µM
- EC50 (HT-29 cells): ≥ 1 µM

SMILES: C[C@H](NC(=O)c1c[nH]c2ncc(-c3ccc(C(=O)N4CCOCC4)cc3)cc12)c1cccc(F)c1 [Compound 74]
- IC50 (RIPK1): 0.1 to 1 µM
- EC50 (HT-29 cells): 0.1 to 1 µM

SMILES: C[C@H](NC(=O)c1c[nH]c2ncc(-c3ccnn3C3CCCCO3)cc12)c1cccc(F)c1 (stereo partly shown) [Compound 75]
- IC50 (RIPK1): ≥ 1 µM
- EC50 (HT-29 cells): 0.1 to 1 µM

SMILES: C[C@H](NC(=O)c1c[nH]c2ncc(-c3ccc(N4CCOCC4)cc3)cc12)c1cccc(F)c1 [Compound 76]
- IC50 (RIPK1): 0.1 to 1 µM
- EC50 (HT-29 cells): 0.1 to 1 µM

SMILES: C[C@H](NC(=O)c1c[nH]c2ncc(-c3ccc(N4CCOCC4)nc3)cc12)c1cccc(F)c1 [Compound 77]
- IC50 (RIPK1): 0.1 to 1 µM
- EC50 (HT-29 cells): 0.1 to 1 µM

SMILES: C[C@H](NC(=O)c1cn(C)c2ccc(-c3cc[nH]n3)cc12)c1cccc(F)c1 [Compound 78]
- IC50 (RIPK1): ≥ 1 µM
- EC50 (HT-29 cells): 0.1 to 1 µM

SMILES: Cn1cc(C(=O)NCc2ccc(F)cc2)c2cc(-c3ccc4nc(NC(=O)C5CC5)sc4c3)ccc21 [Compound 79]
- IC50 (RIPK1): 0.1 to 1 µM
- EC50 (HT-29 cells): 0.01 to 0.1 µM

SMILES: O=C(NCc1ccc(F)cc1F)c1c[nH]c2ncc(-c3ccc4nc(NC(=O)C5CC5)sc4c3)cc12 [Compound 80]
- IC50 (RIPK1): 0.1 to 1 µM
- EC50 (HT-29 cells): 0.01 to 0.1 µM

SMILES: C[C@H](NC(=O)c1c[nH]c2ccc(-c3ccc4nc(NC(=O)C5CC5)[nH]c4c3)cc12)c1cccc(F)c1 [Compound 81]
- IC50 (RIPK1): 0.01 to 0.1 µM
- EC50 (HT-29 cells): 0.1 to 1 µM

SMILES: C[C@H](NC(=O)c1c[nH]c2ccc(-c3ccn4nc(NC(=O)C5CC5)nc4c3)cc12)c1cccc(F)c1 [Compound 82]
- IC50 (RIPK1): 0.01 to 0.1 µM
- EC50 (HT-29 cells): 0.1 to 1 µM

SMILES: C[C@H](NC(=O)c1c[nH]c2ccc(-c3ccc4c(N)ncnn34)cc12)c1cccc(F)c1 [Compound 83]
- IC50 (RIPK1): 0.1 to 1 µM
- EC50 (HT-29 cells): 0.1 to 1 µM

SMILES: Cc1noc(C)c1CNC(=O)c1c[nH]c2ccc(-c3ccc4nc(NC(=O)C5CC5)sc4c3)cc12 [Compound 84]
- IC50 (RIPK1): 0.1 to 1 µM
- EC50 (HT-29 cells): 0.1 to 1 µM

SMILES: O=C(NCc1ccn[nH]1)c1c[nH]c2ccc(-c3ccc4nc(NC(=O)C5CC5)sc4c3)cc12 [Compound 85]
- IC50 (RIPK1): ≥ 1 µM
- EC50 (HT-29 cells): ≥ 1 µM

SMILES: Cn1cc(CNC(=O)c2c[nH]c3ccc(-c4ccc5nc(NC(=O)C6CC6)sc5c4)cc23)cn1 [Compound 86]
- IC50 (RIPK1): ≥ 1 µM
- EC50 (HT-29 cells): ≥ 1 µM

SMILES: O=C(NCc1ccc2[nH]ccc2c1)c1c[nH]c2ccc(-c3ccc4nc(NC(=O)C5CC5)sc4c3)cc12 [Compound 87]
- IC50 (RIPK1): ≥ 1 µM
- EC50 (HT-29 cells): ≥ 1 µM

SMILES: C[C@H](NC(=O)c1c[nH]c2ccc(-c3ccc4nc(NC(=O)C5CC5)sc4n3)cc12)c1cccc(F)c1 [Compound 88]
- IC50 (RIPK1): 0.01 to 0.1 µM
- EC50 (HT-29 cells): 0.001 to 0.01 µM

SMILES: C[C@H](NC(=O)c1cn(C)c2ccc(-c3ccc4nc(NC(=O)C5CC5)sc4n3)cc12)c1cccc(F)c1 [Compound 89]
- IC50 (RIPK1): 0.01 to 0.1 µM
- EC50 (HT-29 cells): 0.001 to 0.01 µM

SMILES: COCC(=O)Nc1nc2ccc(-c3ccc4c(c3)c(C(=O)N[C@@H](C)c3cccc(F)c3)cn4C)nc2s1 [Compound 91]
- IC50 (RIPK1): 0.1 to 1 µM
- EC50 (HT-29 cells): 0.1 to 1 µM

SMILES: COCC(=O)Nc1nc2ccc(-c3ccc4[nH]cc(C(=O)N[C@@H](C)c5cccc(F)c5)c4c3)cn2n1 [Compound 92]
- IC50 (RIPK1): 0.1 to 1 µM
- EC50 (HT-29 cells): 0.1 to 1 µM

SMILES: O=C(NCc1ccc(N2CCOCC2)cc1)c1c[nH]c2ccc(-c3ccc4nc(NC(=O)C5CC5)sc4c3)cc12 [Compound 93]
- IC50 (RIPK1): ≥ 1 µM
- EC50 (HT-29 cells): ≥ 1 µM

SMILES: COCC(=O)Nc1nc2ccc(-c3ccc4[nH]cc(C(=O)NCc5cccc(F)c5)c4c3)cn2n1 [Compound 95]
- IC50 (RIPK1): 0.1 to 1 µM
- EC50 (HT-29 cells): 0.1 to 1 µM

SMILES: COCC(=O)Nc1nc2ccc(-c3ccc4c(c3)c(C(=O)N[C@@H](C)c3cccc(F)c3)cn4C)cn2n1 [Compound 96]
- IC50 (RIPK1): 0.01 to 0.1 µM
- EC50 (HT-29 cells): 0.01 to 0.1 µM
